Results: ChEMBL document CHEMBL3638687, “N-biphenylmethylindole modulators of PPARG” (2015)

target: T1, Peroxisome proliferator-activated receptor gamma (Homo sapiens, UniProt P37231); assay: Lanthascreen Competitive Binding Assay: The assay was performed according to manufacturer protocol. A mixture of […], 5 nM Tb-GST-antibody, 5 nM Fluormone Pan-PPAR Green, and serial dilutions of the experimental compound, beginning at 10 μM downwards, was added to wells of black 384-well low-volume plates (Greiner) to a total volume of 18 μL. All dilutions were made in TR-FRET assay buffer C. DMSO at 2% final concentration was used as a no-ligand control. Experiment was performed in triplicate, and incubated for 2 hours in the dark prior to assay read in Perkin Elmer ViewLux ultra HTS microplate reader. FRET signal was measured by excitation at 340 nm and emission at 520 nm for fluorescein and 490 nm for terbium. Fold change over DMSO was calculated using GraphPad Prism Software (La Jolla, Calif.) by calculating 520 nm/490 nm ratio. Graphs were plotted as fold change of FRET signal for compound treatment over DMSO-only control.
T1 sequence (P37231 whole entry): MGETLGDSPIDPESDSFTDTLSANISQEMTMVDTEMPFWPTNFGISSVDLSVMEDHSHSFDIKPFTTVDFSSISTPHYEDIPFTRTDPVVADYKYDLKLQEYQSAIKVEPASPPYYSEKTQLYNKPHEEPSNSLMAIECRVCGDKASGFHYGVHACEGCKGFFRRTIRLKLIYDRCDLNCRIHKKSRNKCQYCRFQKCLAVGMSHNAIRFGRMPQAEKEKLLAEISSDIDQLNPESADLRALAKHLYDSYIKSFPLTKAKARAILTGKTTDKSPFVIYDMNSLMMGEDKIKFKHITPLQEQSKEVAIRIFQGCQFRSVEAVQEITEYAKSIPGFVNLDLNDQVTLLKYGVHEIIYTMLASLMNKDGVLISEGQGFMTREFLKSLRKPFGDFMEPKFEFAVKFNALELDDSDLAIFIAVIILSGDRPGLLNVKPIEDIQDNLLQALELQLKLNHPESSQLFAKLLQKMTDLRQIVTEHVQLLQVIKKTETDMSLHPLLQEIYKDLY

Going from `CC[C@H](NC(=O)c1ccc2c(c1)c(C)c(C)n2Cc1ccccc1-c1ccc(C(=O)O)cc1)c1ccccc1` to `CC[C@@H](NC(=O)c1ccc2c(c1)c(C)c(C)n2Cc1ccccc1-c1ccc(C(=O)O)cc1)c1ccccc1`, the IC50 falls from > 1000 nM to 80 nM. The second is the more potent here.

Going from `Cc1c(C)n(Cc2ccc(-c3ccccc3C(=O)O)cc2)c2ccc(C(=O)NCc3ccc(F)c(F)c3)cc12` to `Cc1c(C)n(Cc2ccc(-c3ccccc3C(=O)O)cc2)c2ccc(C(=O)N[C@@H](C)c3ccc(Cl)c(C(F)(F)F)c3)cc12`, the IC50 falls from 31 nM to 15 nM (2.1-fold).

First: Cc1c(C)n(Cc2ccc(-c3ccccc3C(=O)O)cc2)c2ccc(C(=O)N[C@@H](C)c3cccc(OC(C)C)c3)cc12
Second: Cc1c(C)n(Cc2ccc(-c3ccccc3C(=O)O)cc2)c2ccc(C(=O)N[C@@H](C)c3ccc(OC(C)C)cc3)cc12
The IC50 of the first is 1.8-fold lower: 19 nM for the first, 34 nM for the second. The first is the more potent here.

Going from `Cc1c(C)n(Cc2ccc(-c3ccccc3C(=O)O)cc2)c2ccc(C(=O)N[C@H]3CCN(C(=O)OCc4ccccc4)C3)cc12` to `Cc1c(C)n(Cc2ccc(-c3ccccc3C(=O)O)cc2)c2ccc(C(=O)N[C@@H](C)C3CCN(C(=O)NCc4ccccc4)CC3)cc12`, the IC50 rises from 536 nM to 805 nM (1.5-fold).

Going from `CC[C@@H](NC(=O)c1ccc2c(c1)c(C)c(C)n2Cc1ccccc1-c1cccc(C(=O)O)c1)c1ccccc1` to `CC[C@H](NC(=O)c1ccc2c(c1)c(C)c(C)n2Cc1ccccc1-c1cccc(C(=O)O)c1)c1ccccc1`, the IC50 rises from 20 nM to 80 nM (4-fold).

First: CCC(NC(=O)c1ccc2c(c1)c(C)c(C)n2Cc1ccc(-c2ccccc2C#N)cc1)c1ccccc1 (stereo unspecified)
Second: CCC(NC(=O)c1ccc2c(c1)c(C)cn2Cc1ccc(-c2ccccc2C(=O)O)cc1)c1ccccc1 (stereo unspecified)
The IC50 of the first is 3.7-fold lower: 0.54 nM for the first, 2 nM for the second. The first is the more potent here.

Going from `Cc1c(C)n(Cc2ccc(-c3ccccc3C(=O)O)cc2)c2ccc(C(=O)N[C@@H](C)c3ccc(OC(C)(C)C)cc3)cc12` to `Cc1cn(Cc2ccc(-c3ccccc3C(=O)O)cc2)c2ccc(C(=O)N[C@@H](C)c3ccc([N+](=O)[O-])cc3)cc12`, the IC50 falls from 449 nM to 126 nM (3.6-fold). The second is the more potent here.

Compared with `CCC(NC(=O)c1ccc2c(c1)cc(C)n2Cc1ccc(-c2ccccc2C(=O)O)cc1)c1ccccc1` (stereo unspecified), `Cc1c(C)n(Cc2ccc(-c3cccnc3)cc2)c2ccc(C(=O)N[C@@H](C)c3ccc([N+](=O)[O-])cc3)cc12` is 75-fold higher in IC50: 2 nM for the first, 150 nM for the second. The first is the more potent here.
